Laboratory results from patent US11976083B2, “Inhibitors of peptidylarginine deiminases” (Gilead Sciences, Inc., priority 2020, dated 2024).

What was measured:
[1] = system: collagen induced arthritis (CIA); details: prophylactic treatment, murine CIA model; cited from earlier work
[2] = from COc1cc(C(=O)OC(C)C)cc2nc(-c3cc4ccc([C@@H](C)N)nc4n3CCCCCc3ccccc3C(=O)O)n(C)c12; amide bond; HATU; DCM; 24.6 mM; 25.0 °C; 16.0 h
[3] = system: models of chronic and acute inflammatory diseases; details: MRL/lpr mouse lupus, hemorrhagic shock in rats, mouse CLP sepsis, mouse DSS-colitis, ApoE-/- arteriosclerosis, diabetic wound healing models; cited from earlier work
human PAD4 = molecular target: T1, human PAD4 (Homo sapiens, UniProt Q9UM07); assay: In vitro PAD4 BAEE biochemical assay; details: BAEE substrate 3 mM, 5 nM PAD4, 2 mM calcium chloride; geometric mean of multiple experiments
T1 construct: human PAD4 (NM_012387), A2-P663, was PCR amplified; His-SUMO (N, cleaved yes); made in house; host or cells: E. coli BL21(DE3)
Procedure, shortened: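 Recombinant human PAD4 (5 nM final) with 2 mM CaCl2 was preincubated with compound 30 min at 25 °C in MOPS buffer pH 7.6, then reacted with 3 mM BAEE for 2 h at 25 °C. After EDTA stop, released ammonia was detected by o-phthalaldehyde/DTT fluorescence (ex 405/em 535 nm); IC50 from four-parameter fit, geometric mean.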

T1 sequence (Q9UM07 2-663): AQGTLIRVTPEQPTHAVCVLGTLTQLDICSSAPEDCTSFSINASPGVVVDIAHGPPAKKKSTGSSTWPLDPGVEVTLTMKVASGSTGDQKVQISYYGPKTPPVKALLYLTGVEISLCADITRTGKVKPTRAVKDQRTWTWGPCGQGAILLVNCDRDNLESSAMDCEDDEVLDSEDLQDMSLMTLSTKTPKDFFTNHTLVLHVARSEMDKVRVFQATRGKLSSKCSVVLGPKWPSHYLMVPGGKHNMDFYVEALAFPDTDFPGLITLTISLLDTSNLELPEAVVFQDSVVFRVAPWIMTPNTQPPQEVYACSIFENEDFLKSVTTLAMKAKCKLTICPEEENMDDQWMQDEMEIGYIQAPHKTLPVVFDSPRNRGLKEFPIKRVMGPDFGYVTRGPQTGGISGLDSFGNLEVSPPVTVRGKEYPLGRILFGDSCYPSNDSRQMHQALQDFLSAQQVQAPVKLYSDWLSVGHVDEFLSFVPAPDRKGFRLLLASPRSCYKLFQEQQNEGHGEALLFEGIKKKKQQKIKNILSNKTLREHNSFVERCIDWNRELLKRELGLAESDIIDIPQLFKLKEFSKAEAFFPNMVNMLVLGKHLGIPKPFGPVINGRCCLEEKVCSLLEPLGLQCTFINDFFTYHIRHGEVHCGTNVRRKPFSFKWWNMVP

IC50 (human PAD4) [nM] | Molecule | clinical and histological scores [1] | clinical, inflammatory, histopathological and mechanical end points [3] | other results
– | CCn1c(-c2nc3cc(C(=O)N4CCC[C@@H](N)C4)cc(OC)c3n2C)cc2cccnc21.Cl [GSK199] | improvement of clinical and histological scores | – | –
– | COc1cc(C(=O)OC(C)C)cc2nc(-c3cc4ccc5nc4n3CCCCCc3ccccc3C(=O)N[C@@H]5C)n(C)c12 | – | – | ring closure, yield of all isomers [2]: 70.9%
– | YW3-56 | – | reduction of clinical, inflammatory, histopathological and mechanical end points | –
– | NC(=O)[C@H](CCCN=C(N)CCl)NC(=O)c1ccccc1 [chloroamidine] | improvement of clinical and histological scores | reduction of clinical, inflammatory, histopathological and mechanical end points | –
74 | COc1cc(C(=O)N2[C@H]3CC[C@@H]2[C@H](N)C3)cc2nc(-c3cc4ccc5nc4n3CCCCCCCC(=O)NC5(C)C)n(C)c12 [Example 251, 17-[5-[(1~{R},2~{R},4~{S})-2-amino-7-azabicyclo[2.2.1]heptane-7-carbonyl]-7-methoxy-1-methyl-benzimidazol-2-yl]-11,11-dimethyl-1,10,19-triazatricyclo[10.5.2.0^{15,18}]nonadeca-12(19),13,15(18),16-tetraen-9-one] | – | – | –
55 | COc1cc(C(=O)N2CCC[C@@H](N)C2)cc2nc(-c3cc4ccc5nc4n3C[C@H]3C[C@@H]3[C@@H](C)OCCC(=O)N[C@@H]5C)n(C)c12 [Example 162, (3~{S),5~{S},6~{R},12~{R})-18-[5-[(3~{R})-3-aminopiperidine-1-carbonyl]-7-methoxy-1-methyl-benzimidazol-2-yl]-6,12-dimethyl-7-oxa-1,11,20-triazatetracyclo[11.5.2.0^{3,5}.0^{16,19}] icosa-13(20),14,16(19),17-tetraen-10-one] | – | – | –
